Results reported in patent US8334403B1, “C-lysine conjugates as pH-controlled, light-activated reagents for double stranded DNA cleavage and associated methods” (Florida State University Research Foundation, Inc., priority 2005, dated 2012).
Where “and” joins values, the source holds several entries; their conditions need not be identical. Equal entries are not always repeated.

Key:
[1] = Fluorometric (emission) determination of pKa; format: physicochemical
Experimental: (§1) General information. ^1H, ^13C and ^19F NMR were collected on a Varian Gemini 300 MHz NMR spectrometer and a Bruker 300 MHz NMR spectrometer. Mass spectrometry data was collected on a Jeol JMS-600H. UV spectra were recorded on a Shimadzu UV-2100. Fluorescence spectra were obtained with SPEX FluoMax spectrofluorimeter using right-angle geometry. pH was adjusted with AB 15 plus pH meter (Accument) after standardization at 25° C. All buffers were prepared and pH-adjusted at room temperature (25° C.). Plasmid DNA Photocleavage. pBR322 plasmid DNA (4,361 b/p; from BioLabs Inc., 1 μg/μL solution in 10 mM Tris-HCl (pH 8.0), and 1 mM EDTA buffer) was diluted to a concentration of 0.01 μg/μL. The solution containing cleavage agent, DNA (30 μM/bp) in 20 mM sodium phosphate buffer was incubated for 1 hour at 30° C. Samples were placed on ice at a distance of 20 cm from 200 W Hg—Xe lamp (Spectra-Physics, Laser & Photonics Oriel Instruments with long pass filter with 324 nm cut-off wavelength). Electrophoretic Analysis. The gel electrophoresis was carried out in 1×TBE buffer at 80 V using Miligel FisherBiotech Horizontal Electrophoresis System. All gels were run on 1% agarose slab gels. Before loading, the DNA samples were mixed with 0.33 volume of tracking dye containing bromophenol blue (0.25%) and glycerol (30%) in water. After staining in ethidium bromide solution (2 μg/ml) for 1 hour, the gel was washed with water and pictures were taken with Polaroid 3000ISO type 667 film. The relative quantities of the supercoiled, nicked, and linear DNA were calculated by integrating the “area” of each spot by the image analyzer software Total/Lab (Nonlinear Dynamics Ltd., UK). The amount of supercoiled DNA was multiplied by factor of 1.4 to account for reduced ethidium bromide intercalation into supercoiled DNA. pH titration by ^1H-NMR. pH* of compound 8 (3 mM) solution in D2O containing 0.05 wt % 3-(trimethylsilyl)propionic-2,2,3,3-d4 acid, sodium salt (TSP-d4) was adjusted with 10 wt % DCI and NaOD in D2O at 25° C. under argon purged condition. Spectrometric determinations of pKa. pH of 10 μM of compound solution in H2O was adjusted with 10, 100 mM HCl (aq) and NaOH (aq) solution under argon purged condition. Excitation wavelength was 330 nm and polymethacrylate fluorimeter cuvettes were used. Absorbance and fluorescence titration with DNA. The concentrations of calf thymus DNA stock solution was determined spectophotometrically using the following molar absorptovity values: 1.32×10^4 M^−1 cm^−1 (per base pair) at 260 nm. All experiments were done in 20 mM sodium phosphate buffer at 25° C. and polymethacrylate fluorimeter cuvettes were used. The same amount of DNA was added to both sample and reference cuvettes during UV/Vis titration. Determination of excited state lifetimes. The concentration of compound solution was 10 μM in 20 mM sodium phosphate buffer. The photoluminescence lifetime measurements were conducted by exciting the samples with the output of a Nd:VO—4 (Spectra-Physics Vanguard, 2 W, 532 nm, 76 MHz, 10 ps) pumped R6G dye laser (Coherent 702-1). The output of the dye laser (600 nm, Rhodamine 6G) was cavity dumped at 1.9 MHz and frequency doubled using a BBO crystal to excite the fluorophore (the excitation wavelength used was 290 nm). Samples were excited with <1 mW power and the emission was collected at right angles onto a Chromex S3 500 is 0.5 m imaging monochromator with a 50 g/mm grating and 0.5 nm resolution. […]

[2] = UV-absorption titration determination of pKa; format: physicochemical; conditions: absorption
Experimental: as §1

CT DNA = assay: Ethidium bromide displacement assay; format: binding, calf; conditions: 10 μM ethidium bromide, 10 μM CT DNA
Experimental: General information. ^1H, ^13C and ^19F NMR were collected on a Varian Gemini 300 MHz NMR spectrometer and a Bruker 300 MHz NMR spectrometer. Mass spectrometry data was collected on a Jeol JMS-600H. UV spectra were recorded on a Shimadzu UV-2100. Fluorescence spectra were obtained with SPEX FluoMax spectrofluorimeter using right-angle geometry. pH was adjusted with AB 15 plus pH meter (Accument) after standardization at 25° C. All buffers were prepared and pH-adjusted at room temperature (25° C.). Plasmid DNA Photocleavage. pBR322 plasmid DNA (4,361 b/p; from BioLabs Inc., 1 μg/μL solution in 10 mM Tris-HCl (pH 8.0), and 1 mM EDTA buffer) was diluted to a concentration of 0.01 μg/μL. The solution containing cleavage agent, DNA (30 μM/bp) in 20 mM sodium phosphate buffer was incubated for 1 hour at 30° C. […] The relative quantities of the supercoiled, nicked, and linear DNA were calculated by integrating the “area” of each spot by the image analyzer software Total/Lab (Nonlinear Dynamics Ltd., UK). […] Absorbance and fluorescence titration with DNA. The concentrations of calf thymus DNA stock solution was determined spectophotometrically using the following molar absorptovity values: 1.32×10^4 M^−1 cm^−1 (per base pair) at 260 nm. […]

[3] = test system: three human clear cell renal cell carcinoma (RCC) cell lines (UMRC3, UMRC6, 786-O); assay: RCC cell proliferation assay, three cell lines together; format: cell-based; conditions: 10 μM
Experimental: FIG. 23 provides the results of cell proliferation assays using three different RCC cell lines: (a) UMRC3, (b) UMRC6 and (c) 786-O, and compounds I-5; RCC cells were resuspended in media and treated with UV radiation (350 nm) for 10 minutes with and without indicated compounds; control cells were exposed to the indicated compound 1-5 at final concentration of 10 μM; cell numbers determined after 72 hours as described in the SI Section;
The ability of compounds 1-5 to inhibit cell proliferation in three human clear cell renal cell carcinoma (RCC) cell lines was tested in the dark and under photoactivation (FIG. 23). No difference was detected in the control experiments between cells not exposed to UV versus those that were exposed to UV at 350 nm for 10 minutes in any of the three RCC cell lines tested (FIG. 23 A, B & C; first two columns).

[4] = test system: LNCap human prostate adenocarcinoma cells; assay: LNCap cell proliferation assay; format: cell-based
[5] = Solubility / aggregation in water; format: physicochemical; conditions: higher pH values (~8)
Source text: The decrease in solubility leads to the apparent aggregation and distortion of potentiometric curves at the higher pH. This distortion prevents accurate curve fitting (see FIG. 25). Thus, we had to resort to alternative spectral methods. Fortunately, there is a selection of convenient procedures which provide complementary information which can be used for cross-checking the accuracy of the alternative approaches.

pBR322 plasmid DNA = assay: Plasmid relaxation assay: DNA photocleavage of supercoiled plasmid under UV irradiation; format: biochemical
Experimental: General information. ^1H, ^13C and ^19F NMR were collected on a Varian Gemini 300 MHz NMR spectrometer and a Bruker 300 MHz NMR spectrometer. Mass spectrometry data was collected on a Jeol JMS-600H. UV spectra were recorded on a Shimadzu UV-2100. Fluorescence spectra were obtained with SPEX FluoMax spectrofluorimeter using right-angle geometry. pH was adjusted with AB 15 plus pH meter (Accument) after standardization at 25° C. All buffers were prepared and pH-adjusted at room temperature (25° C.). Plasmid DNA Photocleavage. pBR322 plasmid DNA (4,361 b/p; from BioLabs Inc., 1 μg/μL solution in 10 mM Tris-HCl (pH 8.0), and 1 mM EDTA buffer) was diluted to a concentration of 0.01 μg/μL. The solution containing cleavage agent, DNA (30 μM/bp) in 20 mM sodium phosphate buffer was incubated for 1 hour at 30° C. Samples were placed on ice at a distance of 20 cm from 200 W Hg—Xe lamp (Spectra-Physics, Laser & Photonics Oriel Instruments with long pass filter with 324 nm cut-off wavelength). Electrophoretic Analysis. The gel electrophoresis was carried out in 1×TBE buffer at 80 V using Miligel FisherBiotech Horizontal Electrophoresis System. All gels were run on 1% agarose slab gels. Before loading, the DNA samples were mixed with 0.33 volume of tracking dye containing bromophenol blue (0.25%) and glycerol (30%) in water. After staining in ethidium bromide solution (2 μg/ml) for 1 hour, the gel was washed with water and pictures were taken with Polaroid 3000ISO type 667 film. The relative quantities of the supercoiled, nicked, and linear DNA were calculated by integrating the “area” of each spot by the image analyzer software Total/Lab (Nonlinear Dynamics Ltd., UK). The amount of supercoiled DNA was multiplied by factor of 1.4 to account for reduced ethidium bromide intercalation into supercoiled DNA. pH titration by ^1H-NMR. pH* of compound 8 (3 mM) solution in D2O containing 0.05 wt % 3-(trimethylsilyl)propionic-2,2,3,3-d4 acid, sodium salt (TSP-d4) was adjusted with 10 wt % DCI and NaOD in D2O at 25° C. under argon purged condition. Spectrometric determinations of pKa. pH of 10 μM of compound solution in H2O was adjusted with 10, 100 mM HCl (aq) and NaOH (aq) solution under argon purged condition. Excitation wavelength was 330 nm and polymethacrylate fluorimeter cuvettes were used. Absorbance and fluorescence titration with DNA. The concentrations of calf thymus DNA stock solution was determined spectophotometrically using the following molar absorptovity values: 1.32×10^4 M^−1 cm^−1 (per base pair) at 260 nm. All experiments were done in 20 mM sodium phosphate buffer at 25° C. and polymethacrylate fluorimeter cuvettes were used. The same amount of DNA was added to both sample and reference cuvettes during UV/Vis titration. Determination of excited state lifetimes. The concentration of compound solution was 10 μM in 20 mM sodium phosphate buffer. The photoluminescence lifetime measurements were conducted by exciting the samples with the output of a Nd:VO—4 (Spectra-Physics Vanguard, 2 W, 532 nm, 76 MHz, 10 ps) pumped R6G dye laser (Coherent 702-1). The output of the dye laser (600 nm, Rhodamine 6G) was cavity dumped at 1.9 MHz and frequency doubled using a BBO crystal to excite the fluorophore (the excitation wavelength used was 290 nm). Samples were excited with <1 mW power and the emission was collected at right angles onto a Chromex S3 500 is 0.5 m imaging monochromator with a 50 g/mm grating and 0.5 nm resolution. Output of the monochromator is focused into a Hamamatsu C5680 streak camera operating at a 20 ns window for the fluorophore. Intensity analysis was carried out by integrating the spectral profile in time on the streak camera. Lifetime analysis over 6-7 lifetimes of the fluorophore was conducted by binning the photoluminescence intensity collected on the streak camera over a 20 nm spectral window at the centroid value of the emission of the fluorophore. Ethidium bromide displacement. […]

For `Cl.Cl.NCCCC[C@H](N)C(=O)Nc1ccc(C#Cc2c(F)c(F)nc(F)c2F)cc1` [Compound 4, (S)-2,6-Diamino-hexanoic acid [4-(2,3,5,6-tetrafluoro-pyridin-4-ylethynyl)-phenyl]-amide dihydrochloride], the “α-pKa lower than the pKa for alanine conjugate 6” value ([1]; difference to compound 6) was ~0.5 units, the “decrease in the basicity of the α-amino group relative to phenyl conjugate 8” value ([1]; difference to compound 8) was 0.5-0.6 pKa units and the pKa1 ([1]; emission, α-amino group (4, 6), ε-amino group (7), dihydrochloride) was 7.0 and 6.98. The pKa1 ([2]; α-amino group (4, 6), ε-amino group (7)) was 6.9, the pKa2 ([2]; ε-amino group) was “-/9.5” and the “displacement of intercalated ethidium bromide from its complex with DNA” value (CT DNA) was “does not lead to the displacement”. The “cytotoxicity in the dark” value [3] was “considerably less cytotoxic in the dark”, the LNCap cells destroyed ([4]; 10 nM, UV 10 minutes, counted after 48 h) was “more than 90%” and the toxicity without light ([4]; no UV) was “almost no toxicity”. The aggregation and precipitation [5] was “does not aggregate and precipitate”, the ds cleavage (pBR322 plasmid DNA; higher concentrations of 4) was ≤ 50% and the “decrease of total DNA cleavage activity on increasing phosphate buffer from 10 mM to 50 mM” value (pBR322 plasmid DNA; pH 5.5, 10 μM) was 48%. The “irradiation time until plasmid DNA is completely consumed” value (pBR322 plasmid DNA; pH 6, 10 μM) was ≤ 5 min.
